Data: patent publication US10052340B2 (XIAMEN UNIVERSITY, priority 2012, dated 2018)
Changes are numbered by the printed parent chain.

Assays:
Format in all cases: cell-based
[1] = tested on: wild-type mouse liver cells; assay: LPS induced inflammatory gene expression in wild-type mouse liver cells; conditions: FIG. 19
Description: Ivermectin and LPS are used to treat wild-type and FXR knockout mouse liver cells.

FXR L287T = target: T1, FXR L287T (Homo sapiens, UniProt Q96RI1, L301T); assay: Reporter gene analysis with FXR point mutant L287T in COS-7 cells; conditions: COS-7, EcRE reporter, vs wild-type FXR, FIG. 5
T1 construct: the expression plasmid expressing full-length FXR (wt) or with mutations at the corresponding sites; expressed in transfected cells; host or cells: COS-7
T1 sequence (Q96RI1 1-472 isoform Q96RI1-2 L287T): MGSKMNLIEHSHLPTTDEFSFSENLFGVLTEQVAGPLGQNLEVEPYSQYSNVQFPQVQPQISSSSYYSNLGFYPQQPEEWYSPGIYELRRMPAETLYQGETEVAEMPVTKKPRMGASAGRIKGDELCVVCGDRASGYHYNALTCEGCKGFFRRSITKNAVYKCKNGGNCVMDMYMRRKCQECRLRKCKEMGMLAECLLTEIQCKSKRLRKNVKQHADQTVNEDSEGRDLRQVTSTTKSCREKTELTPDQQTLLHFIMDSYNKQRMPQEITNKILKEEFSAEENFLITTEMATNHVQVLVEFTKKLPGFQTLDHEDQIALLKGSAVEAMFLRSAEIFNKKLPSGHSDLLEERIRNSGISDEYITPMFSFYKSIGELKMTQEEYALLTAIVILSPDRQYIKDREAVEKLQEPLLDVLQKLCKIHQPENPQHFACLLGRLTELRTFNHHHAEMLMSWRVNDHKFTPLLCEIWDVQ
Method: (§1) (2) The expression vector of FXR with point mutations at key binding sites is obtained. Quick-Change site-directed mutagenesis kit (Stratagene) is used for mutation, and the mutation reaction system is as follows: wild-type plasmid pCMX-FXR (50 ng) of 0.5 μl, mutation primer (100 μM) of 0.2 μl, pfu DNA polymerase (Invitrogen) (2 U) of 1 μl, 10 mM dNTPs of 1 μl, 10× PCR buffer of 5 μl, and ddH2O of 43 μl. PCR procedures are performed as follows: 94° C. for 2 min; 94° C. for 30 s, 55° C. for 1 min, 72° C. for 7 min, 15 cycles. 20 μl PCR product is digested with Dpn I […], followed by taking and transforming 2 μl digestion product into E. coli Trans 109 competent cells, ice bath for 30 min, and heat shock at 42° C. for 30 s. 250 μl of LB liquid medium without antibiotics is added, and preshaken at 225 rpm at 37° C. for 40 min, followed by taking 150 μl of products, spreading same on LB solid medium plates with ampicillin at 100 μg/ml and culturing them at 37° C. overnight. On the next day, the single colony is picked out and placed in 2 ml LB liquid medium containing ampicillin at 100 μg/ml, and cultured at 37° C. overnight. Plasmid extraction is performed on the shaken bacterial solution using Qiagen MiniPrep Plasmid Minipreparation Kit. The plasmid is identified by sequencing.

FXR F284H = target: T2, FXR F284H (Homo sapiens, UniProt Q96RI1, F298H); assay: Reporter gene analysis with FXR point mutant F284H in COS-7 cells; conditions: COS-7, EcRE reporter, FIG. 5
T2 construct: the expression plasmid expressing full-length FXR (wt) or with mutations at the corresponding sites; expressed in transfected cells; host or cells: COS-7
Method: as §1

human FXR = target: T3, human FXR (Homo sapiens, UniProt Q96RI1); assay: Reporter gene analysis, COS-7 cells cotransfected with full-length FXR and EcRE-Luc; conditions: 0.5 μM, COS-7, EcRE reporter, FIG. 2
T3 construct: expressed in transfected cells; host or cells: COS-7
T3 sequence (Q96RI1 1-472 isoform Q96RI1-2): T1 sequence (Q96RI1 1-472 isoform Q96RI1-2 L287T) with T287L
Method: DMEM medium containing 10% fetal bovine serum is used to perform the culture of monkey kidney epithelial cell COS-7 cells, and COS-7 cells are inoculated onto a 24-well plate on the day before transfection with an inoculation density of 5×10^4 cells/well, and transfected on the next day. The transfection is the transient transfection performed using Lipofectamine 2000 (Invitrogen). In the reporter gene analysis experiment, 200 ng of a nuclear receptor full-length expression plasmid or the expression plasmid of the mutant thereof, 200 ng of endogenous promoter reporter gene, and 30 ng of Renilla luciferase expression plasmid are used for cotransfection. 500 μl Opti-MEM is added to each well and cultured for 5 h, followed by adding a ligand medicament diluted in Opti-MEM to reach the corresponding concentration, and treating for 18 h. Various nuclear receptors and the corresponding reporter gene used are as follows: human FXR, EcRE-Luc; human PPARs (α, β, and γ), PPRE-Luc; human RORs (α, β and γ), Pcp2/RORE-Luc; human GR and PR, MMTV-Luc; human RARα and RARβ, and βRE-Luc.
A ligand can be tested for the affinity to FXR since the ligand can induce FXR to recruit coregulators after binding to FXR.

T2 sequence (Q96RI1 1-472 isoform Q96RI1-2 F284H): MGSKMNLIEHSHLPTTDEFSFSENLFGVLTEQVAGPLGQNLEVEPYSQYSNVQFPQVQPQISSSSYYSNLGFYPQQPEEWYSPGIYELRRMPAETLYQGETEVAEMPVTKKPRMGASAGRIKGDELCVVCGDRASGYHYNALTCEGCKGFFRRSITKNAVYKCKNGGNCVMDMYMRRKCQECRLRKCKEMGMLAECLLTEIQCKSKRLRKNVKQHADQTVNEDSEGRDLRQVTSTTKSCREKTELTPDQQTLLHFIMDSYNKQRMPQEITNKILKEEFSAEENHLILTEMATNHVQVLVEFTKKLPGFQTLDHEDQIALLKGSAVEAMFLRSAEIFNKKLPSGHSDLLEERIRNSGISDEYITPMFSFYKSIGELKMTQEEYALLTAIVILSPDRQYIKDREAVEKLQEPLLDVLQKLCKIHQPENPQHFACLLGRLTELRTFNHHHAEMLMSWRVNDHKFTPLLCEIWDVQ

## CC[C@H](C)[C@H]1O[C@]2(CC[C@@H]1C)C[C@@H]1C[C@@H](C/C=C(\C)C(O[C@H]3C[C@H](OC)C(O[C@H]4C[C@H](OC)[C@@H](O)[C@H](C)O4)[C@H](C)O3)[C@@H](C)/C=C/C=C3\CO[C@@H]4[C@H](O)C(C)=CC(C(=O)O1)[C@]34O)O2 (stereo partly shown) [ivermectin]
[1]
  expression of IL-6 induced by LPS: clearly inhibit
  expression of MIP-1a induced by LPS: clearly inhibit
  expression of TNFa induced by LPS: clearly inhibit
  expression of iNOS induced by LPS: clearly inhibit
FXR L287T
  transcriptional activity of FXR mutant L287T: significantly increasing
FXR F284H
  transcriptional activity of FXR mutant F284H: incapable of activating the transcriptional activity of FXR
Human FXR
  transcriptional activity of FXR: can only specifically activate the transcriptional activity of FXR
